This passage reports melting point results from patent US8580790B2, “(Heterocycle/condensed piperidine)-(piperazinyl)-1-alkanone or (heterocycle/condensed pyrrolidine)-(piperazinyl)-1-alkanone derivatives and use thereof as p75 inhibitors” (Sanofi, priority 2009, dated 2013).

SMILES strings stand for the structures. Structures can show the parent of a compound that is named as a salt.

`C[C@@H]1CN(c2ccc(Cl)cn2)C[C@H](C)N1CC(=O)N1CCc2nn(-c3ccc(C(F)(F)F)cn3)cc2C1` [compound 112, 2-[(2S,6R)-4-(5-chloropyridin-2-yl)-2,6-dimethylpiperazin-1-yl]-1-[2-(5-trifluoromethylpyridin-2-yl)-2,4,6,7-tetrahydropyrazolo[4,3-c]pyridin-5-yl]ethanone] came in with a melting point of 165 to 166 °C.

In turn, `C[C@@H]1CN(c2ccc(S(C)(=O)=O)cn2)C[C@H](C)N1CC(=O)N1CCc2nn(-c3ccccc3)cc2C1` [compound 131, 2-[(2S,6R)-4-(5-methanesulphonylpyridin-2-yl)-2,6-dimethylpiperazin-1-yl]-1-(2-phenyl-2,4,6,7-tetrahydropyrazolo[4,3-c]pyridin-5-yl)ethanone] displayed a melting point of 103 to 105 °C.

Consider `COC(=O)c1ccc(N2C3CCC2CN(CC(=O)N2Cc4nc(-c5ccccc5)sc4C2)C3)nc1`, for which the melting point was in the range of 252 to 253 °C.

Molecule `O=C(CN1CCN(c2ccc(C(F)(F)F)cn2)C(=O)C1)N1CCc2nc(-c3cccnc3)sc2C1` [compound 84, 4-[2-oxo-2-(2-pyridin-3-yl-6,7-dihydro-4H-thiazolo[5,4-c]pyridin-5-yl)ethyl]-1-(5-trifluoromethylpyridin-2-yl)piperazin-2-one] had a melting point of 180 to 183 °C.

Turning to `C[C@@H]1CN(c2ccc(C(=O)O)cn2)C[C@H](C)N1CC(=O)N1CCc2nn(-c3ccccc3)cc2C1` [compound 149, 6-{(3S,5R)-3,5-dimethyl-4-[2-oxo-2-(2-phenyl-2,4,6,7-tetrahydropyrazolo[4,3-c]pyridin-5-yl)ethyl]piperazin-1-yl}nicotinic acid], the melting point lay in the range of 208 to 209 °C.

For `COc1ccc(-n2ncc3c2CCN(C(=O)CN2CC4CCC(C2)N4c2ncc(F)cn2)C3)cc1`, the melting point is 194 to 195 °C.

For the molecule `O=C(CN1CCN(c2cncc(Cl)n2)CC1)N1CCc2nn(-c3ccc(C(F)(F)F)cn3)cc2C1` [compound 108, 2-(6′-chloro-2,3,5,6-tetrahydro[1,2′]bipyrazinyl-4-yl)-1-[2-(5-trifluoromethylpyridin-2-yl)-2,4,6,7-tetrahydropyrazolo[4,3-c]pyridin-5-yl]ethanone], the melting point was 185 to 186 °C.

Molecule `O=C(CN1CC2CCC(C1)N2c1ccc(C(F)(F)F)cn1)N1CCc2nn(-c3ccccn3)cc2C1` showed a melting point of 170 to 171 °C.

`C[C@@H]1CN(CC(=O)N2CCc3nn(-c4ccccc4)cc3C2)[C@@H](C)CN1c1ccc(C#N)cn1` [compound 52, 6-{(2R,5S)-2,5-dimethyl-4-[2-oxo-2-(2-phenyl-2,4,6,7-tetrahydropyrazolo[4,3-c]pyridin-5-yl)ethyl]piperazin-1-yl}nicotinonitrile] came in with a melting point of 156 to 159 °C.

Molecule `C[C@@H]1CN(c2ccc(C(F)(F)F)cn2)C[C@H](C)N1CC(=O)N1CCc2cc(-c3ccccc3)oc2C1` [compound 97, 2-[(2S,6R)-2,6-dimethyl-4-(5-trifluoromethylpyridin-2-yl)piperazin-1-yl]-1-(2-phenyl-4,7-dihydro-5H-furano[2,3-c]pyridin-6-yl)ethanone] registered a melting point of 162 °C.

In turn, `C[C@@H]1CN(c2ccc(C(F)(F)F)cn2)C[C@H](C)N1CC(=O)N1CCc2nn(-c3ccc(C(F)(F)F)cn3)cc2C1` [compound 103, 2-[(2S,6R)-2,6-dimethyl-4-(5-trifluoromethylpyridin-2-yl)piperazin-1-yl]-1-[2-(5-trifluoromethylpyridin-2-yl)-2,4,6,7-tetrahydropyrazolo[4,3-c]pyridin-5-yl]ethanone] came in with a melting point of 190 to 191 °C.

`COc1ccc(-c2nc3c(s2)CN(C(=O)CN2CC4CC2CN4c2ccc(C(F)(F)F)cn2)CC3)cc1` (stereo not drawn) [compound 133, 1-[2-(4-methoxyphenyl)-6,7-dihydro-4H-thiazolo[5,4-c]pyridin-5-yl]-2-[5-(5-trifluoromethylpyridin-2-yl)-2,5-diazabicyclo[2.2.1]hept-2-yl]ethanone] returned a melting point of 70 to 73 °C.

Consider `C[C@@H]1CN(c2cncnc2)C[C@H](C)N1CC(=O)N1CCc2nc(-c3ccccc3)sc2C1` [compound 22, 2-((2S,6R)-2,6-dimethyl-4-pyrimidin-5-yl-piperazin-1-yl)-1-(2-phenyl-6,7-dihydro-4H-thiazolo[5,4-c]pyridin-5-yl)ethanone], for which the melting point was 215 to 216 °C.

As to `C[C@@H]1CN(c2ncc(F)cn2)C[C@H](C)N1CC(=O)N1CCc2nn(-c3ccccc3)cc2C1` [compound 17, 2-[(2S,6R)-4-(5-fluoropyrimidin-2-yl)-2,6-dimethylpiperazin-1-yl]-1-(2-phenyl-2,4,6,7-tetrahydropyrazolo[4,3-c]pyridin-5-yl)ethanone], the melting point lay in the range of 174 to 175 °C.

Turning to `CC(C)(C)n1ncc2c1CCN(C(=O)CN1CC3CCC(C1)N3c1ncc(F)cn1)C2`, the melting point lay in the range of 142 to 143 °C.

`COc1ccc(-c2nc3c(s2)CN(C(=O)CN2[C@H](C)CN(c4ncc(F)cn4)C[C@@H]2C)CC3)cc1` [compound 132, 2-[(2S,6R)-4-(5-fluoropyrimidin-2-yl)-2,6-dimethylpiperazin-1-yl]-1-[2-(4-methoxyphenyl)-6,7-dihydro-4H-thiazolo[5,4-c]pyridin-5-yl]ethanone] displayed a melting point of 159 to 161 °C.

On to `O=C(CN1CC2CCC(C1)N2c1ncc(F)cn1)N1CCc2sc(-c3ccccc3)nc2C1`, for which the melting point fell in the range of 180 to 184 °C.

Turning to `CCOC(=O)c1ccc(N2C[C@@H](C)N(CC(=O)N3CCc4nn(-c5ccccc5)cc4C3)[C@@H](C)C2)nc1` (as salt: HCl) [compound 79, 6-{(3S,5R)-3,5-dimethyl-4-[2-oxo-2-(2-phenyl-2,4,6,7-tetrahydropyrazolo[4,3-c]pyridin-5-yl)ethyl]piperazin-1-yl}nicotinic acid ethyl ester], the melting point lay in the range of 235 to 236 °C.

On to `C[C@@H]1CN(c2ccc(-c3nnnn3C)cn2)C[C@H](C)N1CC(=O)N1CCc2nn(-c3ccccc3)cc2C1` [compound 86, 2-{(2S,6R)-2,6-dimethyl-4-[5-(1-methyl-1H-tetrazol-5-yl)pyridin-2-yl]piperazin-1-yl}-1-(2-phenyl-2,4,6,7-tetrahydropyrazolo[4,3-c]pyridin-5-yl)ethanone], for which the melting point was in the range of 198 to 199 °C.

As to `Cn1nnc(-c2ccc(N3C4CCC3CN(CC(=O)N3CCc5nn(-c6ccccc6)cc5C3)C4)nc2)n1`, the melting point lay within 230 to 231 °C.

The molecule `Cc1nc2c(s1)CN(C(=O)CN1CC3CCC(C1)N3c1ncc(F)cn1)CC2` had a melting point of 137 to 138 °C.

`COC(=O)c1ccc(N2C[C@@H](C)N(CC(=O)N3CCc4nn(-c5ccccc5)cc4C3)[C@@H](C)C2)nc1` (as salt: HCl) [compound 23, 6-{(3S,5R)-3,5-dimethyl-4-[2-oxo-2-(2-phenyl-2,4,6,7-tetrahydropyrazolo[4,3-c]pyridin-5-yl)ethyl]piperazin-1-yl}nicotinic acid methyl ester] registered a melting point of 210 to 212 °C.

`C[C@@H]1CN(c2ccc(C(=O)O)cn2)C[C@H](C)N1CC(=O)N1CCc2c(cnn2C(C)(C)C)C1` [compound 93, 6-{(3S,5R)-4-[2-(1-tert-butyl-1,4,6,7-tetrahydropyrazolo[4,3-c]pyridin-5-yl)-2-oxoethyl]-3,5-dimethylpiperazin-1-yl}nicotinic acid] returned a melting point of 150 to 151 °C.

As to `Cn1cc2c(n1)CCN(C(=O)CN1CC3CCC(C1)N3c1ncc(F)cn1)C2`, the melting point was 147 to 149 °C.

As a reminder, the melting point is the temperature, or range, at which the solid turns liquid.
